Assays:
Type in all cases: cell-based
[1] = system: HeLa cells stably expressing EmGFP-HaloTag-Omp25; experiment: Living cell imaging of degradation of injured mitochondria (EmGFP-HaloTag-Omp25 green and MitoTracker Red CMXRos red fluorescence)
Method: HeLa cells cultured in Dulbecco's Modified Eagle Medium (DMEM) were transfected with the plasmid pEmGFP-HaloTag-Omp25 containing a gene sequence encoding the EmGFP-HaloTag-Omp25 fusion protein localized on the mitochondrial outer membrane, and were allowed to stably express the protein. As a result, mitochondria in the cells were able to be observed using green fluorescence as an indicator.
A red fluorescent dye MitoTracker Red CMXRos (Thermo Fisher Scientific, M7513) was added thereto, followed by incubation for 30 minutes to stain mitochondria. At this stage, the mitochondria in the cells had been stained in two colors by EmGFP-HaloTag-Omp25 and MitoTracker Red CMXRos. Subsequently, MitoTracker Red CMXRos in the medium was removed by medium exchange. Mitochondria to be biosynthesized after this operation can only be detected with green fluorescence, and are not to be detected with red fluorescence. This difference was utilized to observe the degradation process of mitochondria by living cell imaging.
The cells were divided into two groups. Indole-FBn was added to an experimental group at a final concentration of […] was not added to a control group. In order to observe living cells at a fixed point for a long period of time, a culture vessel was fixed to a stage-top incubator (37° C., 5% CO2) mounted on a fluorescence microscope (KEYENCE, BX9000), and all the subsequent operations were performed on the microscope. […]
The signals of EmGFP-HaloTag-Omp25 and MitoTracker Red CMXRos at the time of the addition of Indole-FBn (−10 h), the time of the addition of CCCP (0 h), 2 hours after the addition of CCCP (+2 h), […] after the addition of CCCP (+8 h), and 16 hours after the addition of CCCP (+16 h) are shown in FIG. 6 and FIG. 7. In the graphs, the intensities of the signals of EmGFP-HaloTag-Omp25 (green fluorescence) and MitoTracker Red CMXRos (red fluorescence) in the photographs shown in FIG. 6 are shown as relative values with the respective intensities at −10 h being defined as 1. […]

HeLa cells = experiment: Cytoprotective effect against mitochondrial injury induced by uncoupler CCCP (Hoechst33342 nuclear staining, DNA fragmentation, cell viability)
Source text: Assessment Method for Cytoprotective Effect of Compound of Example 3, (R)-2-Acetylamino-3-[2-amino-9-(4-fluoro-benzyl)-6-oxo-6,9-dihydro-1H-purin-8-ylsulfanyl]-N-{3-[2-(2-{3-[2-oxo-2-(2-phenyl-1H-indol-3-yl)-acetylamino]-propoxy}-ethoxy)-ethoxy]-propyl}-propionamide (Indole-FBn), Against Mitochondrial Injury, and Confirmation of Inhibition of Cytoprotective Effect with Autophagy Inhibitor (Bafilomycin A1: Baf A1)
Cell Viability under Condition of Treating Cells with Indole-FBn and CCCP (Test Group):
HeLa cells seeded in Dulbecco's Modified Eagle Medium (DMEM) in a 96-well plate at 30,000 cells/well were incubated under the conditions of 37° C./5% CO2 overnight. […]
Subsequently, the uncoupler CCCP was added at a final concentration of 10 μM, followed by further incubation for 2 hours to induce mitochondrial injury. Cells in each of which DNA fragmentation was found in the nucleus were judged to be dead cells, and cell viability was calculated by the following equation. […]
HeLa cells seeded in Dulbecco's Modified Eagle Medium (DMEM) in a 96-well plate at 30,000 cells/well were incubated under the conditions of 37° C./5% CO2 for 1 day, and then subjected to nuclear staining by Hoechst33342 staining. […] Cells in each of which DNA fragmentation was found in the nucleus were judged to be dead cells, and cell viability was calculated. […]

Detroit532 cells = experiment: JC-1 staining of mitochondrial membrane potential; conditions: Down syndrome patient foreskin-derived fibroblasts; 10 μM, incubation for 3 days
Method: Detroit532 cells, which were Down syndrome patient foreskin-derived fibroblasts, were cultured in Eagle's Minimum Essential Medium. The cells were divided into two groups. A compound (Indole-FBn) was added to an experimental group at a final concentration of 10 μM, and was not added to a control group, followed by incubation for 3 days (37° C., 5% CO2). The cells of each group were each stained with JC-1 (abcam, 113850).
The JC-1 dye accumulates in mitochondria having a normal membrane potential to emit red fluorescence. Meanwhile, its localization is lost from mitochondria having an abnormal membrane potential and green fluorescence is emitted. That is, in a JC-1 staining image, a lower “green/red fluorescence intensity ratio” means that the membrane potential of mitochondria is kept more normal. Staining images were analyzed with ImageJ (National Institute of Health), and the “green/red fluorescence intensity ratio” is shown as a graph. Error bars represent standard deviations obtained from data from three independent experiments.

Question: For `CC(=O)N[C@@H](CSc1nc2c(=O)[nH]c(N)nc2n1Cc1ccc(F)cc1)C(=O)NCCCOCCOCCOCCCNC(=O)C(=O)c1c(-c2ccccc2)[nH]c2ccccc12` [Indole-FBn, (R)-2-Acetylamino-3-[2-amino-9-(4-fluoro-benzyl)-6-oxo-6,9-dihydro-1H-purin-8-ylsulfanyl]-N-{3-[2-(2-{3-[2-oxo-2-(2-phenyl-1H-indol-3-yl)-acetylamino]-propoxy}-ethoxy)-ethoxy]-propyl}-propionamide], which “green and red signal intensities after the addition of CCCP” value ([1]; Indole-FBn-treated group, 2 h, 8 h after CCCP, relative to intensities at -10 h defined as 1) is on record?
Answer: reduced

Question: What about the “removal of injured mitochondria and production of new mitochondria” value ([1]; living cell imaging experiment, overall conclusion) of the same molecule?
Answer: promoted both the removal of injured mitochondria and the production of new mitochondria

Question: And the “green fluorescence intensity, comparison of 8 hours and 16 hours after the addition of CCCP” value ([1]; only in the Indole-FBn-treated group, indicates production of new mitochondria)?
Answer: increased

Question: What about the “cytoprotective effect under the CCCP-treated condition in coexistence of autophagy inhibitor Baf A1” value (HeLa cells; Baf A1 200 nM added 2 hours before Indole-FBn treatment, CCCP 10 μM) of the same molecule?
Answer: significantly inhibited

Question: And the “cell death due to mitochondrial injury (cell viability)” value (HeLa cells; Indole-FBn 1 μM for 10 hours, then CCCP 10 μM for 2 hours, versus non-Indole-FBn-treated control)?
Answer: significantly suppressed cell death

Question: And the “quality of mitochondria (JC-1 green/red fluorescence intensity ratio, membrane potential)” value (Detroit532 cells)?
Answer: significantly improved

From patent US20200223848A1, “DEGRADATION AGENT USING AUTOPHAGIC MECHANISM OF DAMAGED MITOCHONDRIA” (TOHOKU UNIVERSITY, priority 2017, published 2020)
